Test results reported in patent US20230201149A1, “METHODS OF ANTIPATHOGENIC TREATMENT” (priority 2020, published 2023).
Like-named read-outs stand apart in the source and are kept apart here.

Tests used:
COVID-infected cells = conditions: cited from earlier work
[1] = tested on: COVID-19 coronavirus in human lung cells; conditions: read-out: 50% kill rate IC50; cited from earlier work
[2] = tested on: COVID-19 coronavirus in human lung cells; assay: Antiviral potency in human lung cells; type: cell-based
Description: Earlier research of Nafamostat indicated it would not have sufficient concentration in the plasma to cause death of the virus. This was based on trialing drugs in monkey kidney cells. It was determined it would be more realistic to trial the drugs in human lung cells. The results were dramatic in that vastly different effects resulted.

COVID-19 patients [3] = conditions: 50 treated patients, cited from earlier work
ARDS patients = conditions: intravenous, P<0.001; cited from earlier work
[4] = Alzheimer patients, 200 microg/day, cited from earlier work
COVID-19 patients [5] = conditions: cited from earlier work; for inflammatory markers (CRP and ferritin): during IV N-acetylcysteine administration
[6] = in vivo, cited from earlier work
severe COVID patients = conditions: cited from earlier work
[7] = elderly subjects, six months of 45 mg zinc/day as a gluconate; cited from earlier work
SARS-Cov-2 [8] = conditions: replication of SARS-Cov-2, cited from earlier work
SARS-Cov-2 [9] = assay: Inhibition of replication of SARS-Cov-2; type: cell-based
COVID-19 = conditions: cited from earlier work

N=C(N)c1ccc2cc(OC(=O)c3ccc(N=C(N)N)cc3)ccc2c1 [Nafamostat]
COVID-induced cytopathogenic effect (CPE) (COVID-infected cells): inhibits
effect on the virus replication cycle (COVID-infected cells; high levels of double-strand RNA in treated infected cells): limited effects
IC50 [1]: 2.2 nM
decrease of IC50, human lung cells vs monkey kidney cells [2]: 6000 fold
potency relative to Remdesivir ([2]; human lung cells): 600 fold

C=C1CC[C@H](O)C/C1=C/C=C1\CCC[C@]2(C)[C@@H]([C@H](C)CCCC(C)(C)O)CC[C@@H]12 [calcifediol]
patients requiring admission to the ICU (COVID-19 patients [3]; oral, untreated 50%): 2%
deaths (COVID-19 patients [3]): none died

[Se] [selenium]
drop in IL-1beta, R value (ARDS patients): −0.624
drop in IL-6, R value (ARDS patients): 0.642
serum high sensitivity C-reactive protein ([4]; P<0.001): reduced
total glutathione ([4]; P=0.001): significantly increased

CC(=O)N[C@@H](CS)C(=O)O [N-acetylcysteine]
bilirubin (total and direct) (COVID-19 patients [5]; G6PD-deficient patient, IV NAC 600 mg every 12 h for six days): sustained reduction
ALT (COVID-19 patients [5]; G6PD-deficient patient, after IV NAC 30,000 mg over 24 h for two days, peak before 263): 100 U/L
AST (COVID-19 patients [5]; G6PD-deficient patient, after IV NAC 30,000 mg over 24 h for two days, peak before 338): 62 U/L
NLR (COVID-19 patients [5]; G6PD-deficient patient, sustained after the first dose): decrease
inflammatory markers (CRP and ferritin) (COVID-19 patients [5]): significant overall reduction
inflammatory markers (CRP and ferritin) (COVID-19 patients [5]; listed as NAC): significantly reduced
patients eventually discharged (COVID-19 patients [5]; of ten patients): Eight
lung functions (COVID-19 patients [5]; ten respirator-dependent COVID-19 patients): improved
bioavailability ([6]; po): 6-10%
half-life, reduced N-acetylcysteine [6]: about 2 h
half-life, total N-acetylcysteine [6]: about 6 h

Heparin
benefit in less severe cases (severe COVID patients; less severe cases): no benefit
death rate (severe COVID patients; most severe cases, reduced from 64%): 40%

[Zn] [Zinc]
concentration of plasma hsCRP, IL-6, MCP-1, VCAM-1, secretory phospholipase A2, MDA+HAE [7]: decreases

Cc1c(O)cccc1C(=O)N[C@@H](CSc1ccccc1)[C@H](O)CN1C[C@H]2CCCC[C@H]2C[C@H]1C(=O)NC(C)(C)C [nelfinavir, Nelfinavir]
EC50 (SARS-Cov-2 [8]; read-out: effective concentration for 50% inhibition (EC50)): 1130 nM
EC90 (SARS-Cov-2 [8]; read-out: effective concentration for 90% inhibition (EC90)): 1760 nM
trough and peak serum concentration relative to EC50 (SARS-Cov-2 [9]): three to six times higher

Aprotinin
increase of effectiveness by omeprazole (COVID-19): 2.7 fold
